Assay results as given in ChEMBL document CHEMBL1129716, “Indolizidine derivatives as potential substance P antagonists” (Bioorg Med Chem Lett, 1996).

Molecular target: Substance-P receptor (Homo sapiens, UniProt P25103)
Assay: Binding affinity was carried out with NK 1 receptors from U-373MG human astrocytoma cell line
Type: cell-based
Conditions: u-373mg atcc

Chain of Substance-P receptor (P25103 whole entry): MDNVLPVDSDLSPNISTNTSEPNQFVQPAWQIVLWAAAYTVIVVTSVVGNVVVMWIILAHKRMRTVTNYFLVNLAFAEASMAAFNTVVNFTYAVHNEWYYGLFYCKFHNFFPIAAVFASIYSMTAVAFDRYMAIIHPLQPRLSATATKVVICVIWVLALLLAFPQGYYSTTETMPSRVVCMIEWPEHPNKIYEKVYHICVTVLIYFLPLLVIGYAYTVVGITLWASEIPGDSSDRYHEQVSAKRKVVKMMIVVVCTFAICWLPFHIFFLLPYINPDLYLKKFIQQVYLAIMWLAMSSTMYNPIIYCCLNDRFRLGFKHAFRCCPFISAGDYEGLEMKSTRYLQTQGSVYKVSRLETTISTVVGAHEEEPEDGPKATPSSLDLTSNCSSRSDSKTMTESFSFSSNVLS

COc1ccccc1CN[C@H]1CCCN2CCC[C@]12c1ccccc1
Log Ki: < -7

C=C1CN2CCC[C@H](NCc3ccccc3OC)[C@@]2(c2ccccc2)C1
Log Ki: < -7
